According to patent US7563903B2, “Acylaminothiazole derivatives, their preparation and their therapeutic use” (Sanofi-Aventis, priority 2003, dated 2009):
Values joined by “and” are separate entries in the source; they are usually repeats but may differ in a detail not shown here. Equal values may be shown once.

SMILES	melting point
CCC[C@H](NC(=O)[C@H](O)C(CC)CC)C(=O)Nc1ncc(-c2ccccc2COc2ccccc2)s1 (racemic) [Compound No. 42, (2R)-3-ethyl-2-hydroxy-N-{(1S)-1-[({5-[2-(phenoxymethyl)phenyl]-1,3-thiazol-2-yl}amino)carbonyl]butyl}pentanamide]	67.4 °C and 67.5 °C
CCC[C@H](NC(=O)C(O)CC(C)C)C(=O)Nc1ncc(-c2ccccc2COC2CCCCC2)s1 (stereo partly drawn) [Compound No. 4, N-((1S)-1-{[(5-{2-[(cyclohexyloxy)methyl]phenyl}-1,3-thiazol-2-yl)amino]carbonyl}butyl)-2-hydroxy-4-methylpentanamide]	85 °C
CCC[C@H](NC(=O)[C@@H](O)C(CC)CC)C(=O)Nc1ncc(-c2ccccc2COc2ccccc2)s1 [Compound No. 43, (2S)-3-ethyl-2-hydroxy-N-{(1S)-1-[({5-[2-(phenoxymethyl)phenyl]-1,3-thiazol-2-yl}amino)carbonyl]butyl}pentanamide]	122.5 °C
CCC[C@H](NC(=O)[C@@H](O)C(C)(C)C)C(=O)Nc1ncc(-c2ccccc2COC(C)C)s1 [compound 11, (2S)-2-{[(2S)-2-hydroxy-3,3-dimethylbutanoyl]amino}-N-{5-[2-(isopropoxymethyl)phenyl]-1,3-thiazol-2-yl}pentanamide]	63 °C
CCC[C@H](NC(=O)CC(C)(C)C)C(=O)Nc1ncc(-c2ccccc2COC(C)C)s1 [compound 13, (2S)-2-[(3,3-dimethylbutanoyl)amino]-N-{5-[2-(isopropoxymethyl)phenyl]-1,3-thiazol-2-yl}pentanamide]	77 °C
CCC[C@H](NC(=O)C(=O)C(C)CC)C(=O)Nc1ncc(-c2ccccc2COC(C)C)s1 (stereo partly drawn) [compound 14, N-{(1S)-1-[({5-[2-(isopropoxymethyl)phenyl]-1,3-thiazol-2-yl}amino)carbonyl]butyl}-3-methyl-2-oxopentanamide]	112 °C
CCC[C@H](NC(=O)[C@@H](O)C(C)(C)C)C(=O)Nc1ncc(-c2ccccc2COCC)s1 [compound 15, (2S)—N-{5-[2-(ethoxymethyl)phenyl]-1,3-thiazol-2-yl}-2-{[(2S)-2-hydroxy-3,3-dimethylbutanoyl]amino}pentanamide]	148 °C
CCC[C@H](NC(=O)[C@@H](O)C(C)(C)C)C(=O)Nc1ncc(-c2ccccc2COc2cccc(OC(F)(F)F)c2)s1 [compound 17, (2S)-2-{[(2S)-2-hydroxy-3,3-dimethylbutanoyl]amino}-N-[5-(2-{[3-(trifluoromethoxy)phenoxy]methyl}phenyl)-1,3-thiazol-2-yl]pentanamide]	114 °C
CCC[C@H](NC(=O)[C@@H](O)C(C)(C)C)C(=O)Nc1ncc(-c2ccc(OC)cc2COc2ccccc2)s1 [compound 18, (2S)-2-{[(2S)-2-hydroxy-3,3-dimethylbutanoyl]amino}-N-{5-[4-methoxy-2-(phenoxymethyl)phenyl]-1,3-thiazol-2-yl}pentanamide]	117 °C
CCC[C@H](NC(=O)[C@@H](O)C(C)(C)C)C(=O)Nc1ncc(-c2ccccc2COc2ccccc2OC(F)(F)F)s1 [compound 24, (2S)-2-{[(2S)-2-hydroxy-3,3-dimethylbutanoyl]amino}-N-[5-(2-{[2-(trifluoromethoxy)phenoxy]methyl}phenyl)-1,3-thiazol-2-yl]pentanamide]	66 °C
CCC[C@H](NC(=O)[C@@H](O)C(C)(C)C)C(=O)Nc1ncc(-c2ccccc2COc2cc(OC)cc(OC)c2)s1 [compound 25, (2S)—N-(5-{2-[(3,5-dimethoxyphenoxy)methyl]-phenyl}-1,3-thiazol-2-yl)-2-{[(2S)-2-hydroxy-3,3-dimethylbutanoyl]amino}pentanamide]	66.5 °C
CCC[C@H](NC(=O)[C@@H](O)C(C)(C)C)C(=O)Nc1ncc(-c2ccccc2COc2ccc(OC)c(OC)c2)s1 [compound 30, (2S)—N-(5-{2-[(3,4-dimethoxyphenoxy)methyl]phenyl}-1,3-thiazol-2-yl)-2-{[(2S)-2-hydroxy-3,3-dimethylbutanoyl]amino}pentanamide]	81.5 °C

Now from value to molecule:

melting point	SMILES
84 °C	CCC[C@H](NC(=O)[C@@H](O)C(C)(C)C)C(=O)Nc1ncc(-c2ccccc2COc2ccccc2)s1 [Compound No. 9, (2S)-2-{[(2S)-2-hydroxy-3,3-dimethylbutanoyl]amino}-N-{5-[2-(phenoxymethyl)phenyl]-1,3-thiazol-2-yl}pentanamide]
112.7 °C	CCC[C@H](NC(=O)[C@@H](O)C(C)(C)C)C(=O)Nc1ncc(-c2ccccc2COc2ccncc2)s1 [Compound No. 70, (2S)-2-{[(2S)-2-hydroxy-3,3-dimethylbutanoyl]amino}-N-(5-{2-[(4-pyridinyloxy)methyl]phenyl}-1,3-thiazol-2-yl)pentanamide]
92 °C	CCC[C@H](NC(=O)[C@@H](O)C(C)(C)C)C(=O)Nc1ncc(-c2ccccc2COc2ccccc2F)s1 [compound 19, (2S)—N-(5-{2-[(2-fluorophenoxy)methyl]phenyl}-1,3-thiazol-2-yl)-2-{[(2S)-2-hydroxy-3,3-dimethylbutanoyl]amino}pentanamide]
107 °C	CCC[C@H](NC(=O)[C@@H](O)C(C)(C)C)C(=O)Nc1ncc(-c2ccccc2COc2ccccc2CC)s1 [compound 20, (2S)—N-(5-{2-[(2-ethylphenoxy)methyl]phenyl}-1,3-thiazol-2-yl)-2-{[(2S)-2-hydroxy-3,3-dimethylbutanoyl]amino}pentanamide]
99 °C	CCC[C@H](NC(=O)[C@@H](O)C(C)(C)C)C(=O)Nc1ncc(-c2ccccc2COc2cccc(OC)c2OC)s1 [compound 23, (2S)—N-(5-{2-[(2,3-dimethoxyphenoxy)methyl]-phenyl}-1,3-thiazol-2-yl)-2-{[(2S)-2-hydroxy-3,3-dimethylbutanoyl]amino}pentanamide]
88 °C	CCC[C@H](NC(=O)[C@@H](O)C(C)(C)C)C(=O)Nc1ncc(-c2ccccc2COc2cccc(C)c2C)s1 [compound 26, (2S)—N-(5-{2-[(2,3-dimethylphenoxy)methyl]phenyl}-1,3-thiazol-2-yl)-2-{[(2S)-2-hydroxy-3,3-dimethylbutanoyl]amino}pentanamide]
89 °C	CCC[C@H](NC(=O)[C@@H](O)C(C)(C)C)C(=O)Nc1ncc(-c2ccccc2COc2ccc(C)c(C)c2)s1 [compound 27, (2S)—N-(5-{2-[(3,4-dimethylphenoxy)methyl]phenyl}-1,3-thiazol-2-yl)-2-{[(2S)-2-hydroxy-3,3-dimethylbutanoyl]amino}pentanamide]
87 °C	CCC[C@H](NC(=O)[C@@H](O)C(C)(C)C)C(=O)Nc1ncc(-c2ccccc2COc2c(C)cccc2C)s1 [compound 28, (2S)—N-(5-{2-[(2,6-dimethylphenoxy)methyl]phenyl}-1,3-thiazol-2-yl)-2-{[(2S)-2-hydroxy-3,3-dimethylbutanoyl]amino}pentanamide]
169 °C	CCC[C@H](NC(=O)[C@@H](O)C(C)(C)C)C(=O)Nc1ncc(-c2ccccc2COc2cccc(Cl)c2)s1 [compound 29, (2S)—N-(5-{2-[(3-chlorophenoxy)methyl]phenyl}-1,3-thiazol-2-yl)-2-{[(2S)-2-hydroxy-3,3-dimethylbutanoyl]amino}pentanamide]
